The values that follow come from US8431596B2 (Cancer Research Technology Limited, priority 2007, dated 2013).

This assay deals with T1, AXL (human catalytic domain) (Homo sapiens, UniProt P30530).
T1 construct: purchased Upstate Ltd. 14-512
T1 sequence (P30530 473-894): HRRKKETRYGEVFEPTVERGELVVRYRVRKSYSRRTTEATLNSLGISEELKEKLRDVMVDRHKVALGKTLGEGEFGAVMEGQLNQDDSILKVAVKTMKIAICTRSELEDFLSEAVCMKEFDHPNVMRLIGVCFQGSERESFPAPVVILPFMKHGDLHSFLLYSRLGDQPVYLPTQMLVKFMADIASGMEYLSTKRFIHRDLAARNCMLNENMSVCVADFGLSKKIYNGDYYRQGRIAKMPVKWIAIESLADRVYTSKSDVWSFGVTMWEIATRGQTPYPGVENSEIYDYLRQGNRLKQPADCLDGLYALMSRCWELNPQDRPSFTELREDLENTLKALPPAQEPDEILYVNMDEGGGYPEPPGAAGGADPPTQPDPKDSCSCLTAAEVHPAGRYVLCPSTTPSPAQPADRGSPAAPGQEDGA
Briefly: AXL (human catalytic domain) Enzyme Activity Assay (IMAP fluorescence polarisation). The format is biochemical. In outline: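 IMAP FP readout (Ex485/Em535, after overnight binding) measured inhibition of the human AXL catalytic domain (aa473-894, 15 nM final) acting on 100 nM 5FAM-CSK-tide at 150 μM ATP, equal to KM. Reactions ran 60 min at room temperature in pH 7.0 HEPES buffer; IC50 from 10-point curves.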
On the technique in general: Polarisation of emitted light reports the rotation of a fluorescent probe.

Where [1] appears, read: further data set (WW-001 through WW-169, XX-001 through XX-469, YY-001 through YY-016, ZZ-001 through ZZ-003), 150 μM ATP.
Setting [2] is: first data set, recombinant AXL isoform 1 aa473-894, 150 μM ATP.

For the compound `FC(F)(F)Oc1ccc(-c2cccc3nc(Nc4ccc(OCCN5CCCC5)cc4)nn23)cc1` [XX-244], under setting [1], the IC50 (usually the concentration at which inhibition is half-maximal) was in the range of 0.1 to 1 µM. Turning to `O=C(Nc1nc2cccc(-c3cnc4ccccc4c3)n2n1)C1CC1` [WW-085], the IC50 was 1 to 10 µM under setting [2] and 1 to 10 µM under setting [1]. `Cc1cc(-c2cccc3nc(NC(=O)C4CC4)nn23)ccn1` [WW-087]: the IC50 lay in the range of 1 to 10 µM under setting [2] and 1 to 10 µM under setting [1]. With `O=C(Nc1nc2cccc(-c3cccs3)n2n1)C1CC1` [WW-057], the IC50 is 1 to 10 µM under setting [2] and 1 to 10 µM under setting [1]. Under setting [1], `FC(F)(F)c1ccccc1COc1cccc(-c2cccc3nc(Nc4ccc(OCCN5CCCC5)cc4)nn23)c1` [XX-402] returned an IC50 of 1 to 10 µM. For `CN(C(=O)OC(C)(C)C)c1ccc(-c2cccc3nc(NC(=O)C4CC4)nn23)cc1` [WW-119, {4-[2-(cyclopropanecarbonyl-amino)-[1,2,4]triazolo[1,5-a]pyridin-5-yl]-phenyl}-methyl-carbamic acid tert-butyl ester], the IC50 is, setting by setting: under setting [2], 1 to 10 µM; under setting [1], 1 to 10 µM. `O=C(Cc1cccc(Cl)c1)Nc1cccc(-c2cccc3nc(Nc4ccc(OCCN5CCCC5)cc4)nn23)c1` [XX-227, 2-(3-Chloro-phenyl)-N-(3-{2-[4-(2-pyrrolidin-1-yl-ethoxy)-phenylamino]-[1,2,4]triazolo[1,5-a]pyridin-5-yl}-phenyl)-acetamide] gave an IC50 under setting [1] of 1 to 10 µM. `c1ccc(Oc2ccc(-c3cccc4nc(Nc5ccc(OCCN6CCCC6)cc5)nn34)cc2)cc1` [XX-247] displayed an IC50 under setting [1] of 0.1 to 1 µM. As for `CN(C)CCOc1ccc(Nc2nc3cccc(-c4ccc5c(c4)OCO5)n3n2)cc1` [XX-048], the IC50 by setting is: under setting [2], below 1 µM; under setting [1], 0.1 to 1 µM.

Consider `Cc1cc(Nc2nc3cccc(-c4ccc5c(c4)OCCO5)n3n2)ccc1OCC(N)=O` [XX-071], for which the IC50 under setting [2] was in the range of 1 to 10 µM and the IC50 under setting [1] was in the range of 1 to 10 µM. Compound `C#CCn1cc(-c2cccc3nc(Nc4ccc(OCCN5CCCC5)cc4)nn23)cn1` [XX-302] came in with an IC50 under setting [1] of 0.1 to 1 µM. Regarding `COc1ccc(-c2cccc3nc(Nc4ccc(N5CCNCC5)cc4)nn23)cc1` [XX-023, [5-(4-Methoxy-phenyl)-[1,2,4]triazolo[1,5-a]pyridin-2-yl]-(4-piperazin-1-yl-phenyl)-amine], the IC50 runs as follows: under setting [2], below 1 µM; under setting [1], at most 0.1 µM.

In turn, `CCN(CC)CCN(C)c1cc(Nc2nc3cccc(-c4ccc(OC)cc4)n3n2)ccn1` [XX-326] showed an IC50 under setting [1] of at most 0.1 µM.

For `CC(C)CCn1cc(-c2cccc3nc(Nc4ccc(OCCN5CCCC5)cc4)nn23)cn1` [XX-353], the IC50 under setting [1] was at most 0.1 µM.

The compound `COc1ccc(NC(=O)Nc2cccc(-c3cccc4nc(Nc5ccc(OCCN6CCCC6)cc5)nn34)c2)cc1` [XX-231] displayed an IC50 under setting [1] of 0.1 to 1 µM.

For the compound `O=C(Nc1nc2ccnc(-c3ccc4c(c3)OCCO4)n2n1)C1CC1` [ZZ-001, Cyclopropanecarboxylic acid [5-(2,3-dihydro-benzo[1,4]dioxin-6-yl)-[1,2,4]triazolo[1,5-c]pyrimidin-2-yl]-amide], the IC50 runs as follows: under setting [2], 0.364 µM; under setting [1], 0.1 to 1 µM. Under setting [1], `CS(=O)(=O)n1cc(-c2cccc3nc(Nc4ccc(OCCN5CCCC5)cc4)nn23)cn1` [XX-276, [5-(1-Methanesulfonyl-1H-pyrazol-4-yl)-[1,2,4]triazolo[1,5-a]pyridin-2-yl]-[4-(2-pyrrolidin-1-yl-ethoxy)-phenyl]-amine] returned an IC50 of 0.1 to 1 µM. Same read-out and setting: in the case of `CCN(CC)CCOc1cccc(Nc2nc3ccnc(-c4ccc5c(c4)OCCO5)n3n2)c1` [YY-009] it was 0.1 to 1 µM; in that of `O=C(Cc1cccc(Cl)c1)Nc1ccc(-c2cccc3nc(Nc4ccc(OCCN5CCCC5)cc4)nn23)cc1` [XX-222], 1 to 10 µM. Turning to `c1cc(-c2ccc3occc3c2)n2nc(Nc3ccc(N4CCNCC4)cc3)nc2c1` [XX-058], the IC50 under setting [2] was below 1 µM and the IC50 under setting [1] is at most 0.1 µM. `Cc1cccc(S(=O)(=O)NCc2cccc(-c3cccc4nc(Nc5ccc(OCCN6CCCC6)cc5)nn34)c2)c1` [XX-370]: under setting [1], the IC50 is 0.1 to 1 µM. Regarding `C#CCOc1ccc(-c2cccc3nc(NC(=O)C4CC4)nn23)cc1` [WW-122], the IC50 was in the range of 1 to 10 µM under setting [2] and 1 to 10 µM under setting [1].

In turn, `CCN(CC)CCCNc1cccc(Nc2nc3cccc(-c4ccc5c(c4)OCCO5)n3n2)c1` [XX-130] had a half-maximal inhibitory concentration (IC50) under setting [1] of at most 0.1 µM. Same read-out and setting: the result for `Clc1ccc(-c2cccc3nc(Nc4ccc(OCCN5CCCC5)cc4)nn23)cc1Cl` [XX-297] reads 0.1 to 1 µM. On to `COc1ccc(-c2cccc3nc(NC(=O)C4CC4)nn23)cc1` [WW-005, cyclopropanecarboxylic acid [5-(4-methoxy-phenyl)-[1,2,4]triazolo[1,5-a]pyridin-2-yl]-amide], for which the IC50 reads like this: under setting [2], below 1 µM; under setting [1], 0.1 to 1 µM. `CCCOc1cccc(-c2cccc3nc(Nc4ccc(OCCN5CCCC5)cc4)nn23)c1` [XX-405] had an IC50 under setting [1] of 1 to 10 µM.

For `CCN(CC)CCOc1cc(Nc2nc3cccc(-c4cccc(CO)c4)n3n2)ccn1` [XX-357], the IC50 under setting [1] is 0.1 to 1 µM.

Under setting [1], `FC(F)(F)c1ccccc1-c1cccc2nc(Nc3ccc(OCCN4CCCC4)cc3)nn12` [XX-195] registered an IC50 of 1 to 10 µM. For `O=C(CCN1CCCC1)Nc1ccc(Nc2nc3cccc(-c4ccc5c(c4)OCCO5)n3n2)cc1` [XX-104], the IC50 under setting [1] lay in the range of 0.1 to 1 µM. For `CC(C)(C)OC(=O)Nc1cccc(-c2cccc3nc(Nc4ccc(OCCN5CCCC5)cc4)nn23)c1` [XX-156], the half-maximal inhibitory concentration (IC50) under setting [1] was 1 to 10 µM. As to `O=C(Nc1nc2cccc(-c3cccc(-n4cccn4)c3)n2n1)C1CC1` [WW-137], the IC50 was 1 to 10 µM under setting [2] and 1 to 10 µM under setting [1]. Regarding `COc1ccc(-c2cccc3nc(Nc4ccc(OCCNCc5ccccn5)cc4)nn23)cc1` [XX-029], the IC50 reads like this: under setting [2], below 1 µM; under setting [1], 0.1 to 1 µM.

Under setting [1], `COc1ccc(-c2cccc3nc(Nc4ccc(OC[C@@H](c5ccccc5)N5CCCC5)cc4)nn23)cc1` [XX-411] came in with an IC50 of 0.1 to 1 µM. As to `O=C(Nc1nc2cccc(-c3ccn[nH]3)n2n1)C1CC1` [WW-053], the IC50 under setting [2] fell in the range of 1 to 10 µM and the IC50 under setting [1] lay within 1 to 10 µM.

In turn, `COc1cccc(-c2cccc3nc(Nc4ccc(OCCN5CCCC5)cc4)nn23)c1` [XX-150] gave an IC50 under setting [1] of 1 to 10 µM.

With `Cc1cc(-c2cccc3nc(NC(=O)C4CC4)nn23)cc(C)c1O` [WW-008, Cyclopropanecarboxylic acid [5-(4-hydroxy-3,5-dimethyl-phenyl)-[1,2,4]triazolo[1,5-a]pyridin-2-yl]-amide], the IC50 runs as follows: under setting [2], 1 to 10 µM; under setting [1], 1 to 10 µM. Regarding `CN(C)CCOc1ncc(Nc2nc3cccc(-c4ccc5c(c4)OCCO5)n3n2)cn1` [XX-078], the IC50 reads like this: under setting [2], below 1 µM; under setting [1], 0.1 to 1 µM. Under setting [1], `CCN(CC)CCC(=O)Nc1cccc(Nc2nc3cccc(-c4ccc5c(c4)OCCO5)n3n2)c1` [XX-124] returned an IC50 of 0.1 to 1 µM.

As to `CCN(CC)CCOc1ccc(Nc2nc3cccc(-c4ccc5c(c4)OCCO5)n3n2)cc1` [XX-075], the IC50 is, setting by setting: under setting [2], below 1 µM; under setting [1], at most 0.1 µM. Taken in the same sequence, the figures for `COc1ccc(-c2cccc3nc(Nc4cccc(C(=O)NCCN(C)C)c4)nn23)cc1` [XX-037] were below 1 µM and at most 0.1 µM. In turn, `CCCCNC(=O)c1cccc(-c2cccc3nc(Nc4ccc(OCCN5CCCC5)cc4)nn23)c1` [XX-301] showed an IC50 under setting [1] of 1 to 10 µM. As to `Fc1cccc(CNc2cccc(-c3cccc4nc(Nc5ccc(OCCN6CCCC6)cc5)nn34)c2)c1` [XX-264], the IC50 under setting [1] is 0.1 to 1 µM.

In the case of `O=C(Nc1nc2cccc(-c3ccc(F)c(O)c3)n2n1)C1CC1` [WW-097], the IC50 is below 1 µM under setting [2] and 0.1 to 1 µM under setting [1].

`Cc1cc(CNc2cccc(-c3cccc4nc(Nc5ccc(OCCN6CCCC6)cc5)nn34)c2)n(C)n1` [XX-262] showed an IC50 under setting [1] of 1 to 10 µM. The compound `Cc1ccc(-c2cccc(-c3cccc4nc(Nc5ccc(OCCN6CCCC6)cc5)nn34)c2)cc1` [XX-465] had an IC50 under setting [1] of 1 to 10 µM. Still for that read-out and setting: the result for `COc1cc(Nc2nc3cccc(-c4ccc5c(c4)OCCN5C)n3n2)ccc1OCCN1CCCC1` [XX-095] reads 0.1 to 1 µM; that for `O=C(NCc1cccc(-c2cccc3nc(Nc4ccc(OCCN5CCCC5)cc4)nn23)c1)Nc1cccc(Cl)c1` [XX-348, 1-(3-Chloro-phenyl)-3-(3-{2-[4-(2-pyrrolidin-1-yl-ethoxy)-phenylamino]-[1,2,4]triazolo[1,5-a]pyridin-5-yl}-benzyl)-urea], 1 to 10 µM. Still for that read-out and setting: the result for `c1coc(-c2cccc3nc(Nc4ccc(OCCN5CCCC5)cc4)nn23)c1` [XX-203] reads 0.1 to 1 µM; that for `COc1ccc(Nc2nc3cccc(-c4ccc5c(c4)OCCO5)n3n2)cc1OCCN1CCCC1` [XX-132], at most 0.1 µM; that for `CCCCCn1cc(-c2cccc3nc(Nc4ccc(OCCN5CCCC5)cc4)nn23)cn1` [XX-343], 0.1 to 1 µM. Turning to `c1cc(-c2ccc3c(c2)CCO3)n2nc(Nc3ccc(OCCN4CCCCC4)cc3)nc2c1` [XX-052], the IC50 was below 1 µM under setting [2] and 0.1 to 1 µM under setting [1]. Taken in the same sequence, the figures for `COc1cc(-c2cccc3nc(NC(=O)C4CC4)nn23)ccc1O` [WW-093] were 1 to 10 µM and 1 to 10 µM. Taken in the same sequence, the figures for `CN(C)c1cccc(-c2cccc3nc(NC(=O)C4CC4)nn23)c1` [WW-071] were 1 to 10 µM and 1 to 10 µM. Taken in the same sequence, the figures for `COc1ccc(-c2cccc3nc(Nc4ccc(OCCN)cc4)nn23)cc1` [XX-046] were below 1 µM and at most 0.1 µM.
